This note sets out measurements from patent publication US12077503B2, “Substituted cyclic amides and their use as herbicides” (FMC CORPORATION, priority 2015, dated 2024).

Common to all, as to assay: Test C flooded paddy test
Assay type in all cases: in vivo

The test system of test [1] is barnyardgrass (Echinochloa crus-galli). Particulars: Flood; for Plant response rating (scale of 0 to 100), Barnyardgrass: 0 is no effect, 100 is complete control. An outline of the steps:
(§1)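 Visual 0–100 injury rating versus controls (0 = no effect, 100 = complete control) at 13 to 15 d. 2-leaf-stage plants; pots flooded 3 cm over soil surface, test compound added to paddy water; greenhouse.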

Test [2] relates to ducksalad (Heteranthera limosa). Conditions: Flood; for Plant response rating (scale of 0 to 100), Ducksalad: 0 is no effect, 100 is complete control. An outline of the steps:
as §1

In the next test the test system is rice (Oryza sativa). Particulars: Flood; for Plant response rating (scale of 0 to 100), Rice: 0 is no effect, 100 is complete control. A digest of the protocol: as §1
Test [3] has as its system sedge, umbrella (small-flower umbrella sedge, Cyperus difformis). Conditions: Flood; for Plant response rating (scale of 0 to 100), Sedge, Umbrella: 0 is no effect, 100 is complete control. An outline of the steps: as §1
Where [4] appears, read: 31 g ai/ha, scale 0 to 100 (0 no effect, 100 complete control), 13 to 15 d.

Regarding `O=C1NCC(c2cccc(OC(F)(F)C(F)F)c2)C1C(=O)Nc1cccc(F)c1F` (racemic) [Compound 697], in test [1] (setting [4]), the “Plant response rating, Barnyardgrass” value was determined as 0. The entries for the “Plant response rating (scale of 0 to 100), Barnyardgrass” value in test [1] (62 g ai/ha), in test [1] (125 g ai/ha) and in test [1] (250 g ai/ha) were 30, 45 and 45, respectively. The “Plant response rating, Ducksalad” value in test [2] (setting [4]) was determined as 40. The “Plant response rating (scale of 0 to 100), Ducksalad” value in test [2] (62 g ai/ha) is recorded as 40; in test [2] (125 g ai/ha) it was 60; in test [2] (250 g ai/ha) it was 100. In the test on rice (Oryza sativa) (setting [4]), the “Plant response rating, Rice” value worked out at 0. In addition, the “Plant response rating (scale of 0 to 100), Rice” value with rice (Oryza sativa) (62 g ai/ha) was determined as 0; with rice (Oryza sativa) (125 g ai/ha), 50; with rice (Oryza sativa) (250 g ai/ha) it was 70. The “Plant response rating, Sedge, Umbrella” value in test [3] (setting [4]) turned out to be 0. Further, the “Plant response rating (scale of 0 to 100), Sedge, Umbrella” value in test [3] (62 g ai/ha), in test [3] (125 g ai/ha) and in test [3] (250 g ai/ha) was 0 in each case.
